# Reference: patent publication US20170029388A1, “Treatment of Neurodegenerative Diseases with Asparagine Endopeptidase (AEP) Inhibitors and Compositions Related Thereto” (INTERCONTINENTAL GREAT BRANDS LLC, priority 2014, published 2017)
# Tests used:
# Caco-2 monolayer = Caco-2 monolayer permeability screen; assay type: in vitro ADME; conditions: for A -> B Papp / B -> A Papp / RE: Caco-2
# Protocol: To explore the in vitro ADME profiles of the compounds, additional tests were conducted.
# CYP2D6 = CYP2D6 (Homo sapiens, UniProt P10635); test: CYP inhibition screening, CYP2D6; assay type: in vitro ADME
# AEP = target: T1, AEP (Homo sapiens, UniProt Q99538); test: Time course inactivation assays (progress curves); assay type: biochemical
# T1 construct: tested with purified active AEP, IC50 values for the top 8 candidates were found; purchased Sino Biological
# T1 sequence (Q99538 18-323 limits assumed): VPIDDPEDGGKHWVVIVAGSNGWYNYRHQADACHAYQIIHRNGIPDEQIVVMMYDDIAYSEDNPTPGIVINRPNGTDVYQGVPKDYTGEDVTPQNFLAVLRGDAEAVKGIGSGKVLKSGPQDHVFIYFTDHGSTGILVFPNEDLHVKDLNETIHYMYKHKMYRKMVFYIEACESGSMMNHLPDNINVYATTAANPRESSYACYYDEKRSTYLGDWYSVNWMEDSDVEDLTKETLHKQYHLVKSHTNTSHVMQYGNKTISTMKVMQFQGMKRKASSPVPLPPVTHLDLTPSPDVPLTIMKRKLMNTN
# Protocol: KI values for each inhibitor were determined by global fits to the competitive inhibition equation. C. Time course inactivation assays were used to generate progress curves, depicting product formation as a function of time. […] E. Time course inactivation assays were used to generate progress curves, depicting product formation as a function of time. Pseudo first-order rate constants were obtained at each concentration of compound BB1. F. Re-plot of the pseudo first-order rate constants, kobs, vs. the concentration of compound BB1.
# To continue to assess the mechanism utilized by the compounds to inhibit AEP, the inhibition kinetics were determined for compound, 11, as well as compound BB1, in an attempt to confirm that the thiol moiety is competitively inhibiting the enzyme. […] The resulting Michaelis-Menten plots for each compound seem be indicative of competitive inhibition. […] Since BB1 contains a thiol group, it can form a disulfide bond with the active-site cysteine of AEP. […] Additionally, plotting the pseudo-first-order rate constants of inhibition, kobs, which were determined from the progress curves, yielded a hyperbolic curve, consistent with a two-step mechanism of inactivation (FIG. 6D). […] However, the kobs versus inhibitor concentration plot yielded a straight line, maybe due to the rapid disulfide formation reaction (FIG. 6F).
# Progress curves were generated by incubating 5 μM Z-AAN-AMC and the specified concentration of inhibitor in assay buffer at 37° C. for 10 min. The reaction was initiated by the addition of 50 nM AEP and quenched after 10 min. The concentration of the product was determined from an AMC standard curve and the data was fit by nonlinear regression. Since the curves were nonlinear, they were fit to equation 5, using the GraFit version 5.0.11 software package, […]
# [Product]=νi(1−e^−kobs.app*t)/kobs.app (eq 5), where νi is the initial velocity, kobs.app is the apparent pseudo-first order rate constant for inactivation, and t is time. […]
# [1] = tested on: cleavage of the amyloid precursor protein (APP); test: OGD in primary cortical neurons, APP cleavage (immunoblot); assay type: cell-based
# Protocol: A. AEP activity, measured in primary neuronal cultures with 5 μM Cbz-Ala-Ala-Asn-AMC (x-axis denotes neurons were treated with 0.1 μM or 1.0 μM specified compound). B. Caspase activity, measured in primary neuronal cultures with 5 μM Ac-Asp-Glu-Val-Asp-AMC. C. Cathepsin activity, measured in primary neuronal cultures with 5 μM D-Val-Leu-Lys-AMC. D. Inhibition of APP cleavage. Lysates of primary cortical neurons pre-incubated with compounds for 30 min, underwent OGD for 4 hrs, were reperfused for 18 hrs (normoxia neurons remained at normoxic conditions). E. APP can be cleaved in a dose-dependent manner. Lysates of primary cortical neurons pre-incubated with compounds for 30 min, underwent OGD for 4 hrs, were reperfused for 18 hrs (normoxia neurons remained at normoxic conditions).
# Depriving cells of oxygen and glucose is a cellular model that is employed to trigger acidosis in cultured cells. The efficacy of the compounds in a cellular model of oxygen-glucose deprivation (OGD) was determined in an effort to mimic the effects of stroke in primary cultured neurons. As a result of depriving neurons of oxygen and glucose-containing medium, AEP activity was doubled (FIG. 7A, ‘DMSO-Norm’ compared to ‘DMSO-OGD’), while Caspase-3 and Cathepsin activities remained relatively unchanged. […] Cleavage of APP is observed in response to only DMSO treatment (FIG. 7D, lane 2), and it appears that upon the treatment of 1 μM of compounds 10, 11, and 12, and just 0.1 μM of compounds 31, 38 and 64, the cleavage was blocked, presumably due to AEP inhibition.
# Compounds were pre-incubated with primary culture neurons, DIV13, for 30 min. The medium was exchanged for glucose-free DMEM and neurons were de-gased and incubated at 37° C., 95% N2/5% CO2 for 4 hrs with compounds. The medium was exchanged for DMEM and supplemented with compounds, then neurons were reperfused for 18 hrs under normoxic conditions. The neuronal lysates were prepared for AEP, Caspase-3 and Cathepsin assays. Moreover, immunoblotting analysis was conducted with the neuronal lysates using anti-APP, anti-AEP antibodies.
# CYP2D6, sequence (P10635 whole entry): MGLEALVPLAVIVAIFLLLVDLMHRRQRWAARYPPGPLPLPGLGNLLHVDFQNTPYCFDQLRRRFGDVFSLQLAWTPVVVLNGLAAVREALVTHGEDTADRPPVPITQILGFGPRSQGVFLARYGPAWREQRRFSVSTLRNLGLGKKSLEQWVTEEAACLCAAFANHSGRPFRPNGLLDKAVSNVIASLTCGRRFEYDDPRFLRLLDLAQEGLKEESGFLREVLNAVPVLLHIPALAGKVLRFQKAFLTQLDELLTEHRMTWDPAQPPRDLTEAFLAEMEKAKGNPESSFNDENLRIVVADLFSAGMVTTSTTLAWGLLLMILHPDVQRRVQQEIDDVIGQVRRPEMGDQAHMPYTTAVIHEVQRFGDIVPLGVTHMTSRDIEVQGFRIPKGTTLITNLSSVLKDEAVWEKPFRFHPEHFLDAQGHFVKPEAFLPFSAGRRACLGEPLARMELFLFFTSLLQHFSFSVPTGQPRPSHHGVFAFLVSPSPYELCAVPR
Compound,Caco-2 permeability (in words) (Caco-2 monolayer),A -> B Papp (Caco-2 monolayer),B -> A Papp (Caco-2 monolayer),RE (Caco-2 monolayer),"CYP inhibition, CYP2D6 (CYP2D6; test concentration 3 μM)","CYP inhibition, CYP2D6 (CYP2D6; test concentration 10 μM)",type of inactivation from progress curves (AEP),cleavage of APP after OGD ([1]; 1 μM compound),"second-order rate constant of inhibition, kinact/KI (AEP; slope of kobs versus inhibitor concentration)",cleavage of APP after OGD ([1]; 0.1 μM compound)
Nc1ccc(N2CCOCC2)c2nonc12 [Compound 11],highly permeable,35.0 10^−6 cm · s^−1,7.0 10^−6 cm · s^−1,0.2,7.8%,21.9%,irreversibly inactivates AEP,blocked,–,–
Sc1nnc(Nc2ccccc2)s1 [Compound BB1],–,–,–,–,–,–,slow-binding inhibitor,–,55000 M⁻¹ s⁻¹,–
Cn1c(=O)[nH]c(=O)c2c1nc(S)n2CC(O)COc1ccc(Cl)cc1 (stereo not shown) [Compound 38],–,1.1 10^−6 cm · s^−1,20.3 10^−6 cm · s^−1,18.2,−5.4%,0.9%,–,–,–,blocked
